Data as given in US20070049564A1 (Wyeth, priority 2005, published 2007).
In brackets after ≈: the same amount, converted by molar mass. Like-named read-outs stand apart in the source and are kept apart here.

Experiments:
Salmonella spp. GC 566 = experiment: MIC, broth microdilution; details: Salmonella
Protocol: (§1) Antimicrobial susceptibility testing. The in vitro activities of the antibiotics are determined by the broth microdilution method as recommended by the National Committee for Clinical Laboratory Standards (NCCLS) (1). Mueller-Hinton II broth (MHBII)(BBL Cockeysville, Md.) is the medium employed in the testing procedures. Microtiter plates containing serial dilutions of each antimicrobial agent are inoculated with each organism to yield the appropriate density (10^5 CFU/ml) in a 100 μl final volume. The plates are incubated for 18-22 hours at 35° C. in ambient air.
(§2) Presented in Tables I-XIII are representative compounds of Formula I which were evaluated against a panel of 40 selected gram-positive and gram-negative bacteria strains by pre-incubation in water, mouse serum or human serum. Representative compounds were first incubated in mouse serum for an hour prior to the in vitro testing against a panel of selected gram-positive and gram-negative bacteria strains. All compounds were also pre-incubated in water for an hour prior to testing as control. Representative compounds of Formula I were incubated in human serum prior to MIC determination.

S. cholerasius GC 1355 = experiment: MIC, broth microdilution
Protocol: as §1, §2

Salmonella spp. GC 235 = experiment: MIC, broth microdilution; details: Salmonella
E. coli #311 = experiment: In vivo activity (oral, iv; ED50) against E. coli in mice; details: Escherichia coli
Excerpt: . […] Smith and E. Coli #311 in mammals.
Results of the tests (MIC, oral and IV) are list in Table 7.

[1] = SPP.GC566, Salmonella spp. GC 566, Mouse Serum pre-incubation
[2] = SPP.GC566, Salmonella spp. GC 566, Water pre-incubation
[3] = S. cholerasius GC 1355, Mouse Serum pre-incubation
[4] = S. cholerasius GC 1355, Water pre-incubation
[5] = SPP.GC235, Salmonella spp. GC 235, Mouse Serum pre-incubation
[6] = SPP.GC235, Salmonella spp. GC 235, Water pre-incubation
[7] = single intravenous dose (SIV), read-out: ED50 E. coli #311 SIV
[8] = single oral dose (SOD), read-out: ED50 E. coli #311 SOD

CCCN(CC(=O)Nc1cc(N(C)C)c2c(c1O)C(=O)C1=C(O)[C@]3(O)C(=O)C(C(N)=O)=C(O)C(N(C)C)C3CC1C2)C(=O)OCc1oc(=O)oc1-c1ccccc1 (stereo in doubt) [Example 110, (2-oxo-5-phenyl-1,3-dioxol-4-yl)methyl 2-{[(7R,10aS)-9-(aminocarbonyl)-4,7-bis(dimethylamino)-1,8,10a,11-tetrahydroxy-10,12-dioxo-5,5a,6,6a,7,10,10a,12-octahydrotetracen-2-yl]amino}-2-oxoethyl(propyl)carbamate]
MIC (Salmonella spp. GC 566; SPP.GC566, pre-incubation in mouse serum): 16 mg/L (≈ 20.3 µM)
MIC (Salmonella spp. GC 566; SPP.GC566, pre-incubation in water): 32 mg/L (≈ 40.5 µM)
MIC (S. cholerasius GC 1355; pre-incubation in mouse serum): > 64 mg/L
MIC (S. cholerasius GC 1355; pre-incubation in water): > 64 mg/L
MIC (Salmonella spp. GC 235; SPP.GC235, pre-incubation in mouse serum): 4 mg/L (≈ 5.06 µM)
MIC (Salmonella spp. GC 235; SPP.GC235, pre-incubation in water): 8 mg/L (≈ 10.1 µM)

CCCCN(CC(=O)Nc1cc(N(C)C)c2c(c1O)C(=O)C1=C(O)[C@]3(O)C(=O)C(C(N)=O)=C(O)[C@@H](N(C)C)C3CC1C2)C(=O)OCOC(=O)c1ccc(OC)cc1 (stereo partly drawn) [Example 2, ({[(2-{[(7S,10aS)-9-(aminocarbonyl)-4,7-bis(dimethylamino)-1,8,10a,11-tetrahydroxy-10,12-dioxo-5,5a,6,6a,7,10,10a,12-octahydrotetracen-2-yl]amino}-2-oxoethyl)(butyl)amino]carbonyl}oxy)methyl 4-methoxybenzoate]
MIC (Salmonella spp. GC 566; [1]): 8 mg/L (≈ 10.1 µM)
MIC (Salmonella spp. GC 566; [2]): > 64 mg/L
MIC (S. cholerasius GC 1355; [3]): > 64 mg/L
MIC (S. cholerasius GC 1355; [4]): > 64 mg/L
MIC (Salmonella spp. GC 235; [5]): 8 mg/L (≈ 10.1 µM)
MIC (Salmonella spp. GC 235; [6]): > 64 mg/L

CCCCN(CC(=O)Nc1cc(N(C)C)c2c(c1O)C(=O)C1=C(O)[C@]3(O)C(=O)C(C(N)=O)=C(O)[C@@H](N(C)C)C3CC1C2)C(=O)OCOC(=O)c1ccc(C)cc1 (stereo partly drawn) [Example 3, ({[(2-{[(7S,10aS)-9-(aminocarbonyl)-4,7-bis(dimethylamino)-1,8,10a,11-tetrahydroxy-10,12-dioxo-5,5a,6,6a,7,10,10a,12-octahydrotetracen-2-yl]amino}-2-oxoethyl)(butyl)amino]carbonyl}oxy)methyl 4-methylbenzoate]
MIC (Salmonella spp. GC 566; [1]): 4 mg/L (≈ 5.14 µM)
MIC (Salmonella spp. GC 566; [2]): > 64 mg/L
MIC (S. cholerasius GC 1355; [3]): 16 mg/L (≈ 20.6 µM)
MIC (S. cholerasius GC 1355; [4]): > 64 mg/L
MIC (Salmonella spp. GC 235; [5]): 2 mg/L (≈ 2.57 µM)
MIC (Salmonella spp. GC 235; [6]): > 64 mg/L

CCCN(CC(=O)Nc1cc(N(C)C)c2c(c1O)C(=O)C1=C(O)[C@]3(O)C(=O)C(C(N)=O)=C(O)[C@@H](N(C)C)[C@@H]3C[C@@H]1C2)C(=O)OCOC(=O)c1ccc(OC)cc1 [Example 6, ({[(2-{[(5aR,6aS,7S,10aS)-9-(aminocarbonyl)-4,7-bis(dimethylamino)-1,8,10a,11-tetrahydroxy-10,12-dioxo-5,5a,6,6a,7,10,10a,12-octahydrotetracen-2-yl]amino}-2-oxoethyl)(propyl)amino]carbonyl}oxy)methyl 4-methoxybenzoate]
MIC (Salmonella spp. GC 566; [1]): 4 mg/L (≈ 5.13 µM)
MIC (Salmonella spp. GC 566; [2]): 64 mg/L (≈ 82.1 µM)
MIC (S. cholerasius GC 1355; [3]): 16 mg/L (≈ 20.5 µM)
MIC (S. cholerasius GC 1355; [4]): > 64 mg/L
MIC (Salmonella spp. GC 235; [5]): 2 mg/L (≈ 2.56 µM)
MIC (Salmonella spp. GC 235; [6]): 16 mg/L (≈ 20.5 µM)

CCCN(CC(=O)Nc1cc(N(C)C)c2c(c1O)C(=O)C1=C(O)[C@]3(O)C(=O)C(C(N)=O)=C(O)[C@@H](N(C)C)[C@@H]3C[C@@H]1C2)C(=O)OCOC(=O)C1CCC1 [Example 7, ({[(2-{[(5aR,6aS,7S,10aS)-9-(aminocarbonyl)-4,7-bis(dimethylamino)-1,8,10a,11-tetrahydroxy-10,12-dioxo-5,5a,6,6a,7,10,10a,12-octahydrotetracen-2-yl]amino}-2-oxoethyl)(propyl)amino]carbonyl}oxy)methyl cyclobutanecarboxylate]
MIC (Salmonella spp. GC 566; [1]): 1 mg/L (≈ 1.37 µM)
MIC (Salmonella spp. GC 566; [2]): 16 mg/L (≈ 22 µM)
MIC (S. cholerasius GC 1355; [3]): 16 mg/L (≈ 22 µM)
MIC (S. cholerasius GC 1355; [4]): > 64 mg/L
MIC (Salmonella spp. GC 235; [5]): 2 mg/L (≈ 2.75 µM)
MIC (Salmonella spp. GC 235; [6]): 8 mg/L (≈ 11 µM)

CCCN(CC(=O)Nc1cc(N(C)C)c2c(c1O)C(=O)C1=C(O)[C@]3(O)C(=O)C(C(N)=O)=C(O)[C@@H](N(C)C)[C@@H]3C[C@@H]1C2)C(=O)OCOC(=O)c1ccc(F)cc1 [Example 8, ({[(2-{[(5aR,6aS,7S,10aS)-9-(aminocarbonyl)-4,7-bis(dimethylamino)-1,8,10a,11-tetrahydroxy-10,12-dioxo-5,5a,6,6a,7,10,10a,12-octahydrotetracen-2-yl]amino}-2-oxoethyl)(propyl)amino]carbonyl}oxy)methyl 4-fluorobenzoate]
MIC (Salmonella spp. GC 566; [1]): 4 mg/L (≈ 5.21 µM)
MIC (Salmonella spp. GC 566; [2]): > 64 mg/L
MIC (S. cholerasius GC 1355; [3]): 32 mg/L (≈ 41.7 µM)
MIC (S. cholerasius GC 1355; [4]): > 64 mg/L
MIC (Salmonella spp. GC 235; [5]): 4 mg/L (≈ 5.21 µM)
MIC (Salmonella spp. GC 235; [6]): 64 mg/L (≈ 83.4 µM)

CCCN(CC(=O)Nc1cc(N(C)C)c2c(c1O)C(=O)C1=C(O)[C@]3(O)C(=O)C(C(N)=O)=C(O)[C@@H](N(C)C)[C@@H]3C[C@@H]1C2)C(=O)OCOC(=O)C(C)(C)C [Example 9, ({[(2-{[(5aR,6aS,7S,10aS)-9-(aminocarbonyl)-4,7-bis(dimethylamino)-1,8,10a,11-tetrahydroxy-10,12-dioxo-5,5a,6,6a,7,10,10a,12-octahydrotetracen-2-yl]amino}-2-oxoethyl)(propyl)amino]carbonyl}oxy)methyl pivalate]
MIC (Salmonella spp. GC 566; [1]): 2 mg/L (≈ 2.74 µM)
MIC (Salmonella spp. GC 566; [2]): 64 mg/L (≈ 87.7 µM)
MIC (S. cholerasius GC 1355; [3]): 64 mg/L (≈ 87.7 µM)
MIC (S. cholerasius GC 1355; [4]): > 64 mg/L
MIC (Salmonella spp. GC 235; [5]): 1 mg/L (≈ 1.37 µM)
MIC (Salmonella spp. GC 235; [6]): 8 mg/L (≈ 11 µM)

CCCN(CC(=O)Nc1cc(N(C)C)c2c(c1O)C(=O)C1=C(O)[C@]3(O)C(=O)C(C(N)=O)=C(O)[C@@H](N(C)C)[C@@H]3C[C@@H]1C2)C(=O)OCOC(=O)C(C)C [Example 10, ({[(2-{[(5aR,6aS,7S,10aS)-9-(aminocarbonyl)-4,7-bis(dimethylamino)-1,8,10a,11-tetrahydroxy-10,12-dioxo-5,5a,6,6a,7,10,10a,12-octahydrotetracen-2-yl]amino}-2-oxoethyl)(propyl)amino]carbonyl}oxy)methyl 2-methylpropanoate]
MIC (Salmonella spp. GC 566; [1]): 2 mg/L (≈ 2.79 µM)
MIC (Salmonella spp. GC 566; [2]): > 64 mg/L
MIC (S. cholerasius GC 1355; [3]): 16 mg/L (≈ 22.4 µM)
MIC (S. cholerasius GC 1355; [4]): > 64 mg/L
MIC (Salmonella spp. GC 235; [5]): 0.5 mg/L (≈ 0.699 µM)
MIC (Salmonella spp. GC 235; [6]): 32 mg/L (≈ 44.7 µM)

CCCN(CC(=O)Nc1cc(N(C)C)c2c(c1O)C(=O)C1=C(O)[C@]3(O)C(=O)C(C(N)=O)=C(O)[C@@H](N(C)C)[C@@H]3C[C@@H]1C2)C(=O)OCOC(=O)Cc1ccccc1 [Example 11, ({[(2-{[(5aR,6aS,7S,10aS)-9-(aminocarbonyl)-4,7-bis(dimethylamino)-1,8,10a,11′-tetrahydroxy-10,12-dioxo-5,5a,6,6a,7,10,10a,12-octahydrotetracen-2-yl]amino}-2-oxoethyl)(propyl)amino]carbonyl}oxy)methyl phenylacetate]
MIC (Salmonella spp. GC 566; [1]): 2 mg/L (≈ 2.62 µM)
MIC (Salmonella spp. GC 566; [2]): > 64 mg/L
MIC (S. cholerasius GC 1355; [3]): 32 mg/L (≈ 41.9 µM)
MIC (S. cholerasius GC 1355; [4]): > 64 mg/L
MIC (Salmonella spp. GC 235; [5]): 0.5 mg/L (≈ 0.655 µM)
MIC (Salmonella spp. GC 235; [6]): 64 mg/L (≈ 83.8 µM)

CN(C)c1cc(NC(=O)CN(C(=O)OCOC(=O)c2ccc(C(C)(C)C)cc2)C(C)(C)C)c(O)c2c1C[C@H]1C[C@H]3[C@H](N(C)C)C(O)=C(C(N)=O)C(=O)[C@@]3(O)C(O)=C1C2=O [Example 43, ({[(2-{[(5aR,6aS,7S,10aS)-9-(aminocarbonyl)-4,7-bis(dimethylamino)-1,8,10a,11-tetrahydroxy-10,12-dioxo-5,5a,6,6a,7,10,10a,12-octahydrotetracen-2-yl]amino}-2-oxoethyl)(tert-butyl)amino]carbonyl}oxy)methyl 4-tert-butylbenzoate]
ED50 (E. coli #311; [7]): 3.6 mg/kg
ED50 (E. coli #311; [8]): 60.4 mg/kg

CN(C)c1cc(NC(=O)CN(C(=O)OCOC(=O)C2CCCC2)C(C)(C)C)c(O)c2c1C[C@H]1C[C@H]3[C@H](N(C)C)C(O)=C(C(N)=O)C(=O)[C@@]3(O)C(O)=C1C2=O [Example 46, ({[(2-{[(5aR,6aS,7S,10aS)-9-(aminocarbonyl)-4,7-bis(dimethylamino)-1,8,10a,11-tetrahydroxy-10,12-dioxo-5,5a,6,6a,7,10,10a,12-octahydrotetracen-2-yl]amino}-2-oxoethyl)(tert-butyl)amino]carbonyl}oxy)methyl cyclopentanecarboxylate]
ED50 (E. coli #311; [7]): 2.16 mg/kg
ED50 (E. coli #311; [8]): 29.2 mg/kg

CCCCOC(=O)N(CC(=O)Nc1cc(N(C)C)c2c(c1O)C(=O)C1=C(O)[C@]3(O)C(=O)C(C(N)=O)=C(O)[C@@H](N(C)C)[C@@H]3C[C@@H]1C2)C(C)(C)C [Example 58, butyl 2-{[(5aR,6aS,7S,10aS)-9-(aminocarbonyl)-4,7-bis(dimethylamino)-1,8,10a,11-tetrahydroxy-10,12-dioxo-5,5a,6,6a,7,10,10a,12-octahydrotetracen-2-yl]amino}-2-oxoethyl(tert-butyl)carbamate]
ED50 (E. coli #311; [7]): > 8 mg/kg
ED50 (E. coli #311; [8]): > 32 mg/kg

CC(C)COC(=O)N(CC(=O)Nc1cc(N(C)C)c2c(c1O)C(=O)C1=C(O)[C@]3(O)C(=O)C(C(N)=O)=C(O)[C@@H](N(C)C)[C@@H]3C[C@@H]1C2)C(C)(C)C [Example 59, isobutyl 2-{[(5aR,6aS,7S,10aS)-9-(aminocarbonyl)-4,7-bis(dimethylamino)-1,8,10a,11-tetrahydroxy-10,12-dioxo-5,5a,6,6a,7,10,10a,12-octahydrotetracen-2-yl]amino}-2-oxoethyl(tert-butyl)carbamate]
ED50 (E. coli #311; [7]): > 8 mg/kg
ED50 (E. coli #311; [8]): > 32 mg/kg

COC(=O)N(CC(=O)Nc1cc(N(C)C)c2c(c1O)C(=O)C1=C(O)[C@]3(O)C(=O)C(C(N)=O)=C(O)[C@@H](N(C)C)[C@@H]3C[C@@H]1C2)C(C)(C)C [Example 60, methyl 2-{[(5aR,6aS,7S,10aS)-9-(aminocarbonyl)-4,7-bis(dimethylamino)-1,8,10a,11-tetrahydroxy-10,12-dioxo-5,5a,6,6a,7,10,10a,12-octahydrotetracen-2-yl]amino}-2-oxoethyl(tert-butyl)carbamate]
ED50 (E. coli #311; [7]): > 8 mg/kg
ED50 (E. coli #311; [8]): > 32 mg/kg
